According to patent US10766855B2, “Hydroxamate triterpenoid derivatives” (VIVACELL BIOTECHNOLOGY ESPANA S.L., priority 2016, dated 2020):

Columns and labels:
[1] = system: HIF-1α; assay: HIF-1α transactivation assay in NIH-3T3-EPO-Luc fibroblast cells; format: cell-based; details: for Efficacy HIF-1α (IRA coefficient) / EC50: 6 h stimulation; for Efficacy HIF-1α (IRA coefficient): relative to 150 μM DFX; for EC50: Fibroblast, read-out: Potency EC50 HIF-1α
Protocol: To investigate the biological activities of the different compounds, HIF-1α transactivation assays were performed either in NIH-3T3-EPO-Luc cells (Table II) or in HaCaT-EPO-luc cells (FIG. 2). The NIH3T3-EPO-luc and HaCaT-EPO-luc cells have been stably transfected with the plasmid Epo-Luc plasmid. The EPO-Hypoxia Response Element (HRE)-luciferase reporter plasmid contains three copies of the HRE consensus sequence from the promoter of the erythropoietin gene fused to the luciferase gene. NIH3T3-EPO-luc cells were maintained at 37° C. in a humidified atmosphere containing 5% CO2 in DMEM supplemented with 10% fetal calf serum (FBS), and 1% (v/v) penicillin/streptomycin. DFX was purchased from Sigma-Aldrich (USA). Cells (1×10^4/well in 96 well plates) were seeded the day before the assay. […] After six hours of stimulation the cells were lysed in 25 mM Tris-phosphate pH 7.8, 8 mM MgCl2, 1 mM DTT, 1% Triton X-100, and 7% glycerol during 15 min at RT in a horizontal shaker. Luciferase activity is measured using a microplate luminometer (Berthold) following the instructions of the luciferase assay kit (Promega, Madison, Wis., USA).

[2] = system: Nrf2; assay: Nrf2 activation/inhibition in HaCaT-ARE-Luc cells; format: cell-based; details: 6 h
Protocol: (§1) The HeLa-STAT3-luc cells stably transfected with the plasmid 4×M67 pTATA TK-Luc. Cells (20×10^3 cells/ml) were seeded in 96-well plates, treated with increasing concentrations of the compounds II to XIV, and of comparative compound CDDO-Me, for 15 min and then stimulated with IFN-γ 25 IU/ml. After 6 h the luciferase activity in the cell lysates was measured as indicated above. […] The HaCaT-ARE-Luc cell line contains the Nqo1 Antioxidant Response Element (ARE)-Luc reporter plasmid. ARE is activated by all members of the CNC family of factors (Nrf1, Nrf2, Nrf3 and p45 NF-E2). The cells were cultivated in 96-well plates at the concentration of 25×10^3 cells/well in a CO2 incubator at 37° C. For induction of Nrf2 activation the cells were treated with increasing concentrations of the compounds II to XV, and of comparative compound CDDO-Me, for 6 h. As a positive control the cells were treated with 0.02 mM of the antioxidant Tert-butyl-hydroquinone (TBHQ). Luciferase activity in the cell lysates was measured as indicated above and the EC50 calculated (Table III). The CHO-TGR5-CRE-Luc cells stably transfected with the pTGR5 and CRE-Luc. The CRE-responsive luciferase construct encodes the firefly luciferase reporter gene under the control of a minimal (m)CMV promoter and tandem repeats of the CRE transcriptional response element (TRE) and is useful to monitor cAMP signaling pathways activated by TGR5 agonists. Cells (1×10^4/well) were seeded in 96-well plates, treated with increasing concentrations of the compounds II to XV and CDDO-Me, for 6 h. As a positive control the cells were treated with 10 μM of LCA (lithocholic acid). Luciferase activity in the cell lysates was measured as indicated above and the EC50 calculated (Table III).

[3] = system: TGR5; assay: TGR5 activation in CHO-TGR5-CRE-Luc cells; format: cell-based; details: 6 h
Protocol: The CHO-TGR5-CRE-Luc cells stably transfected with the pTGR5 and CRE-Luc. […] As a positive control the cells were treated with 10 μM of LCA (lithocholic acid). Luciferase activity in the cell lysates was measured as indicated above and the EC50 calculated (Table III).

[4] = system: Nrf2; assay: Nrf2 activation/inhibition in HaCaT-ARE-Luc cells; format: cell-based
[5] = system: NF-κB; assay: NF-κB inhibition in NIH-3T3-KBF-Luc cells stimulated with TNFα; format: cell-based; details: TNFα 30 ng/ml, 6 h
Protocol: To further study the target selectivity of the compounds described in the present invention the effect of the natural triterpenoids (OA; BA, UA, and MA), compounds II to XV of Formula (I) disclosed in present invention, and of comparative compound CDDO-Me on NF-κB inhibition, STAT-3 inhibition, Nrf2 activation and TGR5 activation was analyzed. For this study cell lines NIH-3T3-KBF-Luc, HeLa-STAT3-Luc, HaCaT-ARE-Luc and CHO-TGR5-CRE-luc were used respectively. The NIH3T3-KBF-Luc cell line stably transfected with the plasmid KBF-Luc plasmid, which contains three copies of NF-κB binding site (from major histocompatibility complex promoter), fused to a minimal simian virus 40 promoter driving the luciferase gene. Cells (1×10^4/well) were seeded in 96-well plates, treated with increasing concentrations of the compounds II to XV for 15 min and then stimulated with 30 ng/ml TNFα. After 6 h the luciferase activity in the cell lysates was measured as indicated above.

[6] = system: STAT3; assay: STAT3 inhibition in HeLa-STAT3-Luc cells stimulated with IFN-γ; format: cell-based; details: IFN-γ 25 IU/ml, 6 h
Protocol: as §1

[7] = system: STHdhQ7/Q7 and STHdhQ111/Q111 striatal cells; assay: 3-NP-induced cytotoxicity in striatal Q7 and Q111 cells (YOYO-1); format: cell-based, mouse; details: 6 h pre-treatment, 3-NP 10 mM 24 h; compound VII increasing concentrations, DFX 50 μM
Protocol: FIG. 8. Compound VII abrogates 3-NP toxicity in Q7 and […] striatal cells. Q7 and Q111 Striatal cells were pretreated with increasing concentrations of compound VII for 6 h and then exposed to 3-NP (10 mM) for an additional 24 h, after which YOYO-1 staining was used to investigate cell death. Cell death was determined using the IncuCyte HD software and the treatment with 3-NP alone in Q111 cells was considered as 100% of cell death.
To investigate whether HIF activation in striatal Q7 and Q111 cells is sufficient to protect striatal neurons (provide neuroprotection), the effect of compound VII on 3-NP induced death was examined. […]
STHdh^Q7/Q7 and STHdh^Q111/Q111 cells (10^4 cells/well in 96-well plates) were incubated with YOYO-1 (Life Technologies) and then treated with 3-NP (10 mM) and or DFX (50 μM) as a positive control for PHDs inhibition. […] The uptake of YOYO-1 by damaged cells correlates with the increase in YOYO-1 fluorescence. Treated cells are placed in an Incucyte FLR imaging system, and the YOYO-1 fluorescence is measured after 24 h of 3-NP treatment. Following the incubation period object counting analysis was performed using the Incucyte FLR software to calculate the total number of YOYO-1 fluorescence positive cells and total DNA containing objects (end point). […]

Row | EC50 [3] [µM] | IC50 [5] [µM] | IC50 [6] [µM] | SMILES | Efficacy HIF-1α (IRA coefficient) [1] | EC50 [1] [µM] | EC50 [2] [µM] | IC50 [4] [µM] | neuroprotection to 3-NP-induced cytotoxicity (cell death) [7] | activation of the EPO promoter as a surrogate marker of HIF-1α pathway activation (in words) [1]
1 | > 50 | > 50 | > 50 | CC1(C)CC[C@]2(C(=O)NO)CC[C@]3(C)C(=CC[C@@H]4[C@@]5(C)C[C@@H](O)[C@H](O)C(C)(C)[C@@H]5CC[C@]43C)[C@@H]2C1 [Compound XIV, (2α,3β) 2,3-Dihydroxy-N-hydroxy-olean-12-en-28-amide] | 0.10 | 7.1 | > 50 | > 50 |  | 
2 | > 50 | > 50 | > 50 | CC1(C)CC[C@]2(C(=O)NO)CC[C@]3(C)C(=CC[C@@H]4[C@@]5(C)C=C(O)C(=O)C(C)(C)[C@@H]5CC[C@]43C)[C@@H]2C1 [Compound XV, 2-Hydroxy-3-oxo-oleana-1,12-dien-N-hydroxy-28-amide] | 0.06 | 11.2 | > 50 | > 50 |  | 

Second part, the molecule before the results:

Row | SMILES | EC50 [3] [µM] | IC50 [5] [µM] | IC50 [6] [µM] | Efficacy HIF-1α (IRA coefficient) [1] | EC50 [1] [µM] | EC50 [2] [µM] | IC50 [4] [µM] | neuroprotection to 3-NP-induced cytotoxicity (cell death) [7] | activation of the EPO promoter as a surrogate marker of HIF-1α pathway activation (in words) [1]
3 | CC(=O)N(O)CCCCCNC(=O)CCC(=O)N(O)CCCCCNC(=O)CCC(=O)N(O)CCCCCN [DFX, desferrioxamine, reference compound] |  |  |  |  |  |  |  | also protected the cells from the cytotoxic activity of 3-NP | 
4 | CC1(C)CC[C@]2(C(=O)O)CC[C@]3(C)C(=CC[C@@H]4[C@@]5(C)C[C@@H](O)[C@H](O)C(C)(C)[C@@H]5CC[C@]43C)[C@@H]2C1 [Maslinic acid, reference compound] | 10.2 | > 50 | > 50 |  | > 50 | > 50 | > 50 |  | None of the natural triterpenoids
5 | CC1(C)CC[C@]2(C(=O)O)CC[C@]3(C)C(=CC[C@@H]4[C@@]5(C)CC[C@H](O)C(C)(C)[C@@H]5CC[C@]43C)[C@@H]2C1 [Oleanolic acid, reference compound] | […] | > 50 | > 50 |  | > 50 | > 50 | > 50 |  | None of the natural triterpenoids
